According to patent US20160061816A1, “SCREENING METHOD FOR ION CHANNEL MODULATORS USING MUTATED BKCA CHANNEL” (GWANGJU INSTITUTE OF SCIENCE AND TECHNOLOGY, priority 2013, published 2016):

Tests used:
WT BKCa channel [1] = biological target: T1, WT BKCa channel (Homo sapiens, UniProt Q12791); assay: FluxOR fluorescence-based assay, cells stably expressing WT BKCa channel; conditions: 10 μM CTBIC, stable cell lines expressing WT channel, FIG. 5b
T1 construct: expressed in transfected cells
Description: (§1) Commercially available FluxOR™ Potassium Ion Channel Assay (Invitrogen) was used in order to perform a fluorescence-based assay for BKCa channels. AD-293 cells stably expressing WT and G733D/N736K BKCa channels were plated onto a poly-D-lysine (Sigma)-coated 96-well microplate (Corning) (5×10^4 cells per well). Cells were pre-cultured with a test compound, CTBIC (4-chloro-7-(trifluoromethyl)-10H-benzofuro[3,2-b]indole-1-carboxylic acid) for 30 minutes in advance of the recording. The fluorescence signal was measured using a Synergy™ H1 Hybrid Multi-Mode Microplate Reader (BioTek Instrument, Inc., Winnoski, Vt.) with Gen5 software. […] The microplate was read every 15 seconds in order to identify whether or not the system of the present invention is suitable for high throughput screening using a standard fluorimeter.
(§2) Finally, the present inventors performed experiments to determine whether cells stably expressing hyperactive BKCa channels are suitable for high-throughput screening for channel activators. […] When cells reached 80% to 90% confluence, FluxOR™ signals were measured. Further, the fluorescence signals from parental AD-293 cell lines were measured as a control group. Prior to reading out the fluorescence, the cells were pre-treated with 10 μM CTBIC or DMSO (control group). […] Relative fluorescence unit (RFU) values increased up to 2.3-fold as compared to basal responses.

parental AD-293 cells = assay: FluxOR fluorescence-based assay, parental cell line (control); conditions: 10 μM CTBIC, FIG. 5a
Description: as §1, §2

G733D/N736K BKCa channel [2] = biological target: T2, G733D/N736K BKCa channel (Homo sapiens, UniProt Q12791, G856D/N859K); assay: FluxOR fluorescence-based assay, cells stably expressing G733D/N736K BKCa channel; format: cell-based
T2 construct: NO: 4; expressed in transfected cells
T2 sequence (Q12791 66-1178 isoform Q12791-5 G798D/N801K): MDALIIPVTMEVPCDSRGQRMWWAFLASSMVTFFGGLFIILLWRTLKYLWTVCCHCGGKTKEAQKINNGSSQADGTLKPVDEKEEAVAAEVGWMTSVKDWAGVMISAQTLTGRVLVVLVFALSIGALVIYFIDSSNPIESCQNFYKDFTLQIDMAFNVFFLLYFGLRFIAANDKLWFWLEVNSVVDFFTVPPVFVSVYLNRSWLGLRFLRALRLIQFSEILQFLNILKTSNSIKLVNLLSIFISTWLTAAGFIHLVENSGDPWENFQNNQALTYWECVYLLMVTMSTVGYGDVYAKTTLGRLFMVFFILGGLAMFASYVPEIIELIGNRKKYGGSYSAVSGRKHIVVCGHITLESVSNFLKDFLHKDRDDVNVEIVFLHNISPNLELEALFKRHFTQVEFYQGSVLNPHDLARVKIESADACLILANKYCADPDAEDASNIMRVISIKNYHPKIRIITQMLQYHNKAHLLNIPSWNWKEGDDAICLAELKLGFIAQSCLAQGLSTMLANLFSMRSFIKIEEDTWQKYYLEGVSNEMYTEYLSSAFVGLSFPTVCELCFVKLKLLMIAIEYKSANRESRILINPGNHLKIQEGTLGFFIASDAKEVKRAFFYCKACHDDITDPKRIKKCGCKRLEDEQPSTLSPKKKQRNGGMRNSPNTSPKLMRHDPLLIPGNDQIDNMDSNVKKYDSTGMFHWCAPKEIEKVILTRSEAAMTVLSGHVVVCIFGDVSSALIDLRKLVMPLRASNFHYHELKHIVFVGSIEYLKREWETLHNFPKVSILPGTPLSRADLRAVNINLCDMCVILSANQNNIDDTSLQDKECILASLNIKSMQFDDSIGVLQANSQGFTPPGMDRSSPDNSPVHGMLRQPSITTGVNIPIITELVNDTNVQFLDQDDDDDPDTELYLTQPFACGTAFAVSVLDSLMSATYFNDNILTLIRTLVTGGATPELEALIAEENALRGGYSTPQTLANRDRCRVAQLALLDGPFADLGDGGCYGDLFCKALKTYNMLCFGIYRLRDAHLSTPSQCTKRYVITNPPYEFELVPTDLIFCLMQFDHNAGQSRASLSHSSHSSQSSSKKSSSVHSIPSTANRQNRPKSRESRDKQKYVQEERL
Description: as §1, §2

WT BKCa channel [3] = biological target: T1, WT BKCa channel; assay: Patch clamp macroscopic current recording, WT BKCa channel; format: cell-based
Description: Macroscopic current recordings were performed using a gigaohm seal patch clamp method. Patch pipettes were made from borosilicate glass (WPI, Sarasota, Fla.), and then fire polished with resistance of 3-5 MΩ. The channel currents were amplified using Axopatch 200B amplifier (Axon Instruments, Foster City, Calif.), low-pass filtered at 1 or 2 kHz using a four-pole Bessel filter, and then digitized at a rate of 10 or 20 points/ms using a Digidata 1200 A digitizer (Axon Instruments). The ionic currents of BKCa channels were activated by voltage-clamped pulses delivered from a holding potential of −100 mV to membrane potentials ranging from −80 mV to 200 mV in increments of 10 mV. The intracellular and extracellular solutions contained, unless otherwise specified, 116 mM KOH (Sigma), 4 mM KCl (Sigma), 10 mM HEPES and 5 mM EGTA (Sigma), and were titrated to pH 7.2 using MES (2-(N-morpholino)ethanesulfonic acid). In order to precisely measure [Ca^2+]i, the appropriate amount of total […] to be added to the intracellular solution was calculated using MaxChelator software (Patton, et al., 2004; http://maxchelator.stanford.edu/). […]

G733D/N736K BKCa channel [4] = biological target: T2, G733D/N736K BKCa channel; assay: Patch clamp macroscopic current recording, G733D/N736K BKCa channel; format: cell-based
Description: Macroscopic current recordings were performed using a gigaohm seal patch clamp method. Patch pipettes were made from borosilicate glass (WPI, Sarasota, Fla.), and then fire polished with resistance of 3-5 MΩ. The channel currents were amplified using Axopatch 200B amplifier (Axon Instruments, Foster City, Calif.), low-pass filtered at 1 or 2 kHz using a four-pole Bessel filter, and then digitized at a rate of 10 or 20 points/ms using a Digidata 1200 A digitizer (Axon Instruments). The ionic currents of BKCa channels were activated by voltage-clamped pulses delivered from a holding potential of −100 mV to membrane potentials ranging from −80 mV to 200 mV in increments of 10 mV. The intracellular and extracellular solutions contained, unless otherwise specified, 116 mM KOH (Sigma), 4 mM KCl (Sigma), 10 mM HEPES and 5 mM EGTA (Sigma), and were titrated to pH 7.2 using MES (2-(N-morpholino)ethanesulfonic acid). In order to precisely measure [Ca^2+]i, the appropriate amount of total […] to be added to the intracellular solution was calculated using MaxChelator software (Patton, et al., 2004; http://maxchelator.stanford.edu/).
In order to evaluate the suitability of cell lines stably expressing G733D/N736K channels as a platform for identification of BKCa channel modulators, the function of a strong BKCa channel activator, CTBIC, which potentiates mutated channel activity, was investigated (Gormemis, et al., 2005; Lee, et al., 2012). […] The relative conductance (G/Gmax) was obtained by normalizing the tail currents (evoked by a step hyperpolarization to −100 mV from a given voltage) to the maximum tail current. The G/Gmax values at 0 μM and 10 μM CTBIC were fitted using a Boltzmann function.

T1 sequence (Q12791 1-1178 isoform Q12791-5): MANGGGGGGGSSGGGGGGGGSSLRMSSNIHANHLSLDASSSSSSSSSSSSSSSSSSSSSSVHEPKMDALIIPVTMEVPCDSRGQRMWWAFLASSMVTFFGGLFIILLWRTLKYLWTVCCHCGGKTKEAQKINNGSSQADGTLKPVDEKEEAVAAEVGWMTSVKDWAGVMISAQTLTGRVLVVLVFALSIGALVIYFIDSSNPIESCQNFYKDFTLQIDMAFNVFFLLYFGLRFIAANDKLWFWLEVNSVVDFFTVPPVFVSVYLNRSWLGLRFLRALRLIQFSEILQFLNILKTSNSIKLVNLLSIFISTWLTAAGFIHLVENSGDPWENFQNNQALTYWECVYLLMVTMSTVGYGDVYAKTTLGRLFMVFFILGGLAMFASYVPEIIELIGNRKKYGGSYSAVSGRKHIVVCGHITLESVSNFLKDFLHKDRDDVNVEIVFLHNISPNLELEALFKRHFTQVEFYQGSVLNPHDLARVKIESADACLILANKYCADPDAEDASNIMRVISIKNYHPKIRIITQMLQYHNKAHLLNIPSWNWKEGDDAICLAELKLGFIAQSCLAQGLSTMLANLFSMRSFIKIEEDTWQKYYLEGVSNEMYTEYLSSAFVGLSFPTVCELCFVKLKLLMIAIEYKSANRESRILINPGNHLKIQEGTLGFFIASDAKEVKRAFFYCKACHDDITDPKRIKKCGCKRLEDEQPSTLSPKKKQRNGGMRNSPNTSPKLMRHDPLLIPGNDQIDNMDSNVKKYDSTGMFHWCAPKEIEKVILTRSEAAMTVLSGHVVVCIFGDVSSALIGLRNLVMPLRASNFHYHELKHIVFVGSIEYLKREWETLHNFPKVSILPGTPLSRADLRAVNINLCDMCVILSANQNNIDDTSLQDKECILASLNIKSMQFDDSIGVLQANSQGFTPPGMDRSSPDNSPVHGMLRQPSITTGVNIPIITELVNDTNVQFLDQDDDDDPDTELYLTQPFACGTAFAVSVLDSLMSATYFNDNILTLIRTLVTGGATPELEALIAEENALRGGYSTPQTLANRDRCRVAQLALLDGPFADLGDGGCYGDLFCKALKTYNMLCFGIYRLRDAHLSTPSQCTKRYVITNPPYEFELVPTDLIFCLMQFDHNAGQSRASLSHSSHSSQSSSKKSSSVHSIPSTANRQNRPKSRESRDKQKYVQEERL

fluorescence increase (WT BKCa channel [1]): about 1.3 fold
Relative fluorescence unit (RFU) increase as compared to basal responses (G733D/N736K BKCa channel [2]; 10 μM CTBIC, 30 min pre-treatment, AD-293 cells stably expressing G733D/N736K channel, stimulus buffer 10 mM free K+): up to 2.3 fold
increase in fluorescence signals (G733D/N736K BKCa channel [2]; stimulus with 10 μM CTBIC, FIG. 5c): ~2.3 times
effect on ionic current (WT BKCa channel [3]; 10 μM CTBIC added to membrane patch, 100 nM [Ca2+]i, FIG. 4a): strongly potentiated
shift of G-V curve (WT BKCa channel [3]; 10 μM CTBIC, FIG. 4c): shifted in the negative direction
effect on ionic current (G733D/N736K BKCa channel [4]; 10 μM CTBIC added to membrane patch, 100 nM [Ca2+]i, FIG. 4b): strongly potentiated
shift of G-V curve (G733D/N736K BKCa channel [4]; 10 μM CTBIC, FIG. 4c): shifted in the negative direction
SMILES: O=C(O)c1ccc(Cl)c2c1[nH]c1c3ccc(C(F)(F)F)cc3oc12 [CTBIC, 4-chloro-7-(trifluoromethyl)-10H-benzofuro[3,2-b]indole-1-carboxylic acid]
impact on the induced fluorescence increase (parental AD-293 cells): minimum impact
shift in V1/2 value (V1/2 free vs. V1/2 10 μM) (G733D/N736K BKCa channel [4]; 10 μM CTBIC, compared with WT channel, FIG. 4d): much larger than the shift for the WT channel
